Test [1] deals with T1, CHIP23-303 recombinant protein (Homo sapiens, UniProt Q9UNE7).
T1 construct: 6xHis (N, cleaved yes); TEV cleavage site (N, cleaved yes); made in house; host or cells: E. coli BL21 CodonPlus (pET21b-derived vector)
T1 sequence (Q9UNE7 23-303): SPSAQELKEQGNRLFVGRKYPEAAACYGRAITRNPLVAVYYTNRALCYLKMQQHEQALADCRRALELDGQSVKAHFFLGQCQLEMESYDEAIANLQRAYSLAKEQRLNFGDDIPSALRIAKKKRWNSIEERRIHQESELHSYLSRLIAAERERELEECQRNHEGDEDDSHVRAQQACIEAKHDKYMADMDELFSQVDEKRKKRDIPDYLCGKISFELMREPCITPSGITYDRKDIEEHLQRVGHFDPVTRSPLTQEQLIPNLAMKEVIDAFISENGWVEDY
In words: competition fluorescence polarization against FAM-Hsp70 peptide loaded CHIP. The format is binding. Conditions: SI table 1.27.1, read-out: Measured IC50. An excerpt: Not limited to known D-proteins, we nominated an original target for MIPD screening, CHIP, and identified three macrocyclic D-peptide binders. CHIP is a member of the RING/U-Box family of E3 ligases that direct the ubiquitination of chaperones[66] and their bound client proteins[67],[68] (Fig. 6A). This interaction is driven by a common (I/M)EEVD motif present on the C-terminus of heat shock protein 70 (Hsp70) and Hsp90 family members that is recognized by the TPR domain of CHIP[69] (Fig. 6B). Degradation driven by CHIP is active in a diverse range of cellular processes from monitoring protein quality control[68] to mediating interferon-γ signaling. Masking of the CHIP-TPR domain can in theory modulate these signaling pathways and as a result is actively being pursued[69],[71]. In addition, CHIP belongs to the same protein family as MDM2 (E3 ubiquitin ligases) and has potential therapeutic relevance by being implicated in neurological disease. For these reasons, we hypothesized that this domain would be a valuable target for D-peptide discovery, and successfully isolated the protein in its mirror image form for MIPD screening. […] All three clusters feature conserved terminal residues with carboxylate functionalities (dD3 in CHIP.C1, dD1/dE2 in CHIP.C2, and dD12 in CHIP.C3), consistent with the conserved terminal aspartic acid residues found on CHIP substrates. Hydrophobic residues are retained in the i,i + 4/5 positions relative to the anchoring aspartic acid residue: dW6 in CHIP.C1, dW6 in CHIP.C2, and dA8 in CHIP.C3, presumably for interaction with the hydrophobic TPR groove.
Supplementary Figure 14. D-H109 SPR to Recombinant MDM2. Sensorgrams and steady state affinity plots of D-H109 binding to recombinant MDM2 are shown.
1.27. CHIP Peptide Binders from Phage Display
1.27.1. CHIP Binder Sequences
Cluster ID Sequence Measured IC50
CHIP.C1 H201ǂ Ac-pwedcawfawacyni-NH2 470 nM
CHIP.C2 H203ǂ Ac-phemcywadaycrys-NH2 550 nM
CHIP.C2 H204ǂ Ac-pldlcywaslhcivs-NH2 770 nM
Listed sequences were cyclized between C5 and C12 with N,N'-(1,4-phenylene)bis(2-bromoacetamide) . ǂSequences were selected for co-crystallization with CHIP.
1.27.2. CHIP Binder FP Validation
For the competition FP of CHIP, Helicons at 10 mM in DMSO were serially diluted 1:3 in DMSO for a total of 11 concentrations using a Mosquito LV (SPT Labtech), then diluted 1000-fold in buffer (1 x HBS-P+, Cytiva) in duplicate by the Mosquito LV (SPT Labtech) into a black polystyrene 384-well plate (Corning) (11-point three-fold peptide dilution series with top concentration = 10 μM). […]
HSP70). The plate was incubated and protected from light for 1 hour at room temperature prior to reading. Reads were performed on a CLARIOstar plate reader (BMG Labtech) with excitation at 485 nm, emission at 525 nm, and cutoff at 504 nm. […]
For orientation: Polarisation of emitted light reports the rotation of a fluorescent probe.

Test [2] has as its target T2, recombinant MDM2 (biotinylated MDM2[25-109]) (Homo sapiens, UniProt Q00987).
T2 construct: MDM2 (residues 25-109); made in house
Briefly: SPR of macrocyclic D-peptides to recombinant MDM2. Type of test: binding. Conditions: SI table 1.26.1, Biacore 8K, 25 °C, 1x HBS-P+ with 1% DMSO, top concentration 5 μM, N = 1, * = listed KD value is beyond tested concentrations, read-out: Measured KD. An excerpt:
We identified three binding clusters selective for D-MDM2 with phage display screening (Fig. 4A and SI Section 1.26). In brief, immobilized D-MDM2 from AFPS was screened against an unbiased phage library of 10^8 members displaying macrocyclic α-helical peptides. We sequenced phage particles that remained bound to the targets after washing using next-generation sequencing. Comparisons of sequencing reads to a spiked-in internal reference allowed for a semi-quantitative read-out of binding affinity as a function of protein bait concentration. […] Consistent with previously described α-helical peptide binders to MDM2[64],[65], all three clusters contain anchoring N-terminal tryptophan residues (dW2 in MDM2.C1, dW1 in MDM2.C2, and dW1 in MDM2.C3), and show conserved hydrophobic residues on the same α-helical face as the tryptophan residue (i,i + 4/5 and i,i + 8/9 relative to dW on each cluster). To validate the specificity of each binding cluster, we synthesized representative binding peptides in the D-form (Fig. 4B, D-H101 from MDM2.C1, D-H102 from MDM2.C2, and D-H103 from MDM2.C3) and measured their affinity to recombinant MDM2 with SPR. We observed binding constants of 5.5 μM, 2.4 μM, and 0.88 μM, respectively (Fig. 4C and Supplementary Figs. 6–8).
1.24. YAP1-WW1-WW2 Protein Expression […]
Cluster ID Sequence Measured KD […]
Background: In SPR one partner is held on a chip, and binding of the other changes the refractive index at the surface.

Where [3] appears, read: 400 nM CHIP23-303, 20 nM probe 5FAM-bAla-[…], 1 hour room temperature, duplicate.

Each structure is given as a SMILES string. Like-named read-outs stand apart in the source and are kept apart here. *1 amine or outer side, *2 acyl side, *3 side chain or, on linkers, in order; H or OH if unused. Where a SMILES comes first, the peptide text is derived from it. Bridges are numbered along the chain shown (N, C = ends). [ ]: non-standard residue; d: D form. Phenylene(1,4-NHCOCH2)2 = O=C(C[*:1])Nc1ccc(NC(=O)C[*:2])cc1

T2 sequence (Q00987 25-109): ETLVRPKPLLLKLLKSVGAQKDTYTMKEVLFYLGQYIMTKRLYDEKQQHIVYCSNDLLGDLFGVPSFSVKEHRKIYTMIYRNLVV

As for `CC[C@@H](C)[C@@H](NC(=O)[C@@H](CC(N)=O)NC(=O)[C@@H](Cc1ccc(O)cc1)NC(=O)[C@H]1CSCC(=O)Nc2ccc(cc2)NC(=O)CSC[C@@H](NC(=O)[C@@H](CC(=O)O)NC(=O)[C@@H](CCC(=O)O)NC(=O)[C@@H](Cc2c[nH]c3ccccc23)NC(=O)[C@H]2CCCN2C(C)=O)C(=O)N[C@H](C)C(=O)N[C@H](Cc2c[nH]c3ccccc23)C(=O)N[C@H](Cc2ccccc2)C(=O)N[C@H](C)C(=O)N[C@H](Cc2c[nH]c3ccccc23)C(=O)N[C@H](C)C(=O)N1)C(N)=O` [D-H201] (Ac-[dP][dW][dE][dD][dC][dA][dW][dF][dA][dW][dA][dC][dY][dN][dI]-NH2; linker 5-12 via Phenylene(1,4-NHCOCH2)2), the IC50 (as a rule, the concentration that gives 50% inhibition) in test [1] (setting [3]) came to 0.47 µM.
As for `CC(=O)N1CCC[C@@H]1C(=O)N[C@H](Cc1c[nH]c2ccccc12)C(=O)N[C@H](Cc1c[nH]c2ccccc12)C(=O)N[C@H](CCC(=O)O)C(=O)N[C@@H]1CSCC(=O)Nc2ccc(cc2)NC(=O)CSC[C@H](C(=O)N[C@H](CC(=O)O)C(=O)N[C@H](Cc2ccccc2)C(=O)N[C@H](CCCNC(=N)N)C(N)=O)NC(=O)[C@@H](CC(=O)O)NC(=O)[C@@H](CC(=O)O)NC(=O)[C@@H](C)NC(=O)[C@@H](CCC(N)=O)NC(=O)[C@@H](CO)NC(=O)[C@@H](CC(C)C)NC1=O` [D-H202] (Ac-[dP][dW][dW][dE][dC][dL][dS][dQ][dA][dD][dD][dC][dD][dF][dR]-NH2; linker 5-12 via Phenylene(1,4-NHCOCH2)2), the IC50 in test [1] (unit as printed in the cell of H202, same competition FP) came out at 1.23 µM.
With `CSCC[C@@H](NC(=O)[C@@H](CCC(=O)O)NC(=O)[C@@H](Cc1c[nH]cn1)NC(=O)[C@H]1CCCN1C(C)=O)C(=O)N[C@@H]1CSCC(=O)Nc2ccc(cc2)NC(=O)CSC[C@H](C(=O)N[C@H](CCCNC(=N)N)C(=O)N[C@H](Cc2ccc(O)cc2)C(=O)N[C@H](CO)C(N)=O)NC(=O)[C@@H](Cc2ccc(O)cc2)NC(=O)[C@@H](C)NC(=O)[C@@H](CC(=O)O)NC(=O)[C@@H](C)NC(=O)[C@@H](Cc2c[nH]c3ccccc23)NC(=O)[C@@H](Cc2ccc(O)cc2)NC1=O` [D-H203] (Ac-[dP][dH][dE][dM][dC][dY][dW][dA][dD][dA][dY][dC][dR][dY][dS]-NH2; linker 5-12 via Phenylene(1,4-NHCOCH2)2), the IC50 in test [1] (setting [3]) stood at 0.55 µM.
With `CC(=O)N[C@H](CC(=O)O)C(=O)N1CCC[C@@H]1C(=O)N[C@H](C)C(=O)N[C@H](CO)C(=O)N[C@H](CCCNC(=N)N)C(=O)N[C@H](CC(N)=O)C(=O)N[C@@H]1CSCC(=O)Nc2ccc(cc2)NC(=O)CSC[C@H](C(=O)N[C@H](CCC(=O)O)C(=O)N[C@H](Cc2ccc(O)cc2)C(=O)N[C@H](Cc2c[nH]c3ccccc23)C(N)=O)NC(=O)[C@@H](CC(C)C)NC(=O)[C@@H](Cc2c[nH]cn2)NC(=O)[C@@H](C)NC(=O)[C@@H](C)NC(=O)[C@@H](Cc2c[nH]c3ccccc23)NC(=O)[C@@H](CCC(N)=O)NC1=O` [H107] (Ac-[dD][dP][dA][dS][dR][dN][dC][dQ][dW][dA][dA][dH][dL][dC][dE][dY][dW]-NH2; linker 7-14 via Phenylene(1,4-NHCOCH2)2), the Kd (commonly the equilibrium constant for the complex coming apart) in test [2] was 1.1 µM.
For `CC[C@@H](C)[C@@H](NC(=O)[C@H]1CSCC(=O)Nc2ccc(cc2)NC(=O)CSC[C@@H](NC(=O)[C@@H](CC(C)C)NC(=O)[C@@H](CC(=O)O)NC(=O)[C@@H](CC(C)C)NC(=O)[C@H]2CCCN2C(C)=O)C(=O)N[C@H](Cc2ccc(O)cc2)C(=O)N[C@H](Cc2c[nH]c3ccccc23)C(=O)N[C@H](C)C(=O)N[C@H](CO)C(=O)N[C@H](CC(C)C)C(=O)N[C@H](Cc2c[nH]cn2)C(=O)N1)C(=O)N[C@@H](C(=O)N[C@H](CO)C(N)=O)C(C)C` [H204] (Ac-[dP][dL][dD][dL][dC][dY][dW][dA][dS][dL][dH][dC][dI][dV][dS]-NH2; linker 5-12 via Phenylene(1,4-NHCOCH2)2), the IC50 in test [1] (setting [3]) is 0.77 µM.

For the origin of these results see article PMC10901774, “Mirror-image ligand discovery enabled by single-shot fast-flow synthesis of D-proteins” (Nature Communications, 2024).
